Measurements reported in patent US20050209278A1, “Piperidinyl- and piperazinyl-sulfonylmethyl hydroxamic acids and their use as protease inhibitors” (priority 2002, published 2005).
Where a name gives a salt, the structure may show the parent alone. Read-outs that look alike come from different tables or passages of the source.

Tests used:
MMP-13 = target: T1, MMP-13 (Homo sapiens, UniProt P45452); test: In vitro MMP inhibition, Ki determination (fluorogenic substrate II); format: biochemical; conditions: read-out: MMP-13 Ki
T1 construct: made in house; host or cells: baculovirus / insect cells
Protocol: (§1) Several hydroxamic acids and salts thereof were analyzed in in vitro assays to determine their ability to inhibit the MMP cleavage of peptide substrates. […] and IC50 constants were calculated from the assayed hydroxamic acid-MMP interactions.
(§2) Human recombinant MMP-1, MMP-2, MMP-9, MMP-13, and MMP-14 were used in this assay. All enzymes were prepared in Assignee's laboratories following usual laboratory procedures. Protocols for the preparation and use of these enzymes are available in the scientific literature. See, e.g., Enzyme Nomenclature (Academic Press, San Diego, Calif., 1992) (and the citations therein). See also, Freije et al., “Molecular cloning and expression of collagenase-3, a novel human matrix metalloproteinase produced by breast carcinomas,” J Biol. Chem., 269(24), 16766-16773 (1994).
The MMP-13 was obtained as a proenzyme from a full-length cDNA clone using baculovirus, as described by V. A. Luckow, “Insect Cell Expression Technology,” Protein Engineering: Principles and Practice, pp. 183-218 (edited by J. L. Cleland et al., Wiley-Liss, Inc., 1996). The expressed proenzyme was first purified over a heparin agarose column, and then over a chelating zinc chloride column. The proenzyme was then activated by APMA for use in the assay. […] See also, O'Reilly et al, Baculovirus Expression Vectors: A Laboratory Manual (W.H. Freeman and Co., New York, N.Y., 1992). See also, King et al., The Baculovirus Expression System: A Laboratory Guide (Chapman & Hall, London, England, 1992).
(§3) All MMPs were activated using 4-aminophenylmercuric acetate (“APMA”, Sigma Chemical, St. Louis, Mo.) or trypsin. MMP-9 also was activated using human recombinant MMP-3 (purified in Assignee's laboratory following standard cloning and purification techniques).
(§4) Two fluorogenic, methoxycoumarin-containing polypeptide substrates were used in the MMP inhibition assays: [drawing 427] Here, “Dpa” is 3-(2,4-dinitrophenyl)-L-2,3-diaminopropionyl group, and “MCA” is 7-methoxycoumarin-4-yl acetyl. Substrate (I) was purchased from Baychem (Redwood City, Calif.), and substrate II was prepared Assignee's laboratory. Substrate I was used in the IC50 determination assays, while substrate II was used in the Ki determination assays. In the absence of MMP inhibitory activity, either substrate is cleaved at the Gly-Leu peptide bond. This cleavage separates the highly fluorogenic peptide from the 2,4-dinitrophenyl quencher, thus resulting in increase of fluorescent intensity.
(§5) The stock solutions of the assayed hydroxamic acids (or salts thereof) were prepared in 1% dimethyl sulfoxide (DMSO). These stock solutions were diluted in Buffer A (100 mM Tris-HCl, 100 mM NaCl, 10 mM CaCl2, 0.05% polyoxyethylene 23 lauryl ether, pH 7.5) to obtain solutions with different hydroxamic acid concentrations, i.e., assay solutions with different concentrations of the assayed MMP inhibitory compound. The experiment controls contained the same amount of Buffer A/DMSO as the assayed sample, but contained no hydroxamic acid (or salt thereof).
(§6) The assays from which the Ki determinations were made were performed as follows. The assayed hydroxamic acid samples were incubated in separate wells of untreated white polystyrene plates (Nunc Nalgene International, Rochester, N.Y.), and analyzed on a Tecan SpectraFlour Plus plate reader. The excitation wavelength was 330 nm, and the emission wavelength—420 nm. All samples (assayed hydroxamic acids and controls) were incubated in separate plate wells at room temperature for 1 hr in the presence of 4 μM of MMP substrate (II). In the absence of MMP inhibitory activity, substrate II was cleaved at the Gly-Leu bond resulting in an increase of relative fluorescence. Inhibition was observed as a reduced rate of this increase in relative fluorescence. The various hydroxamic acids were analyzed using a single low enzyme concentration with a single substrate concentration fixed at or below the Km.

MMP-9 = target: T2, MMP-9 (Homo sapiens, UniProt P14780); test: as above; format: biochemical
T2 construct: made in house; host or cells: MMP-9-transfected HT1080 cells (spent media)
Protocol: as §1, §2
The MMP-9 proenzyme was purified by gelatin Sepharose chromatography from spent media of MMP-9-transfected HT1080 cells provided by Dr. Howard Welgus of Washington University (St. Louis, Mo.).
as §3, §4, §5
as §6, with “Km. This protocol is a modification of method by Knight et al., FEBS Lett., 296(3), 263-266 (1992). Apparent inhibitory constants were determined by non-linear regression of reaction velocity as a function of inhibitor and enzyme concentration using Morrison's equation, as described by Kuzmic, Anal. Biochem. 286, 45-50 (2000). Modifications were made in the non-linear regression method to allow a common control reaction rate and effective enzyme concentration to be shared between all dose-response relationships on a given assay plate. […]” for “Km.”

[1] = human recombinant enzyme, 4 μM substrate II, room temperature, 1 hr

T2 sequence (P14780 107-707 limits assumed): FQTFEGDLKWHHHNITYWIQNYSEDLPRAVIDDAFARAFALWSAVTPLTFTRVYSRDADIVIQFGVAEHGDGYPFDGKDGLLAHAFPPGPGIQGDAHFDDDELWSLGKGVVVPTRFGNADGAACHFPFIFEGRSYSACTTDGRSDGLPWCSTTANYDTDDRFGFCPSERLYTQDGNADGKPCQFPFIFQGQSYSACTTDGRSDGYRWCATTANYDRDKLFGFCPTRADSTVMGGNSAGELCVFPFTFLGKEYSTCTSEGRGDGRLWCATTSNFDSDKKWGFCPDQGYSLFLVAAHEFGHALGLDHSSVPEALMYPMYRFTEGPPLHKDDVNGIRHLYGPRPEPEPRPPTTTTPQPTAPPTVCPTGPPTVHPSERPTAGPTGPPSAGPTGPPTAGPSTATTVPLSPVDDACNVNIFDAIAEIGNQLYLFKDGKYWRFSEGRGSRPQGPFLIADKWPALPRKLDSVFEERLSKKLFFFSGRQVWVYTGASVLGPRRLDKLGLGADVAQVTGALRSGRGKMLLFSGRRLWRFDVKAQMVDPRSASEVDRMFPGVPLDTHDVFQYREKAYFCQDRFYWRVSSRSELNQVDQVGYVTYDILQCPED

SMILES | Ki (MMP-13; [1]) | Ki (MMP-9; [1]) | Ki (MMP-13; value not in parenthesis) | Ki (MMP-9; value not in parenthesis)
O=C(NO)C1(S(=O)(=O)N2CCN(c3ccc(OCCCC(F)(F)F)cc3)CC2)CCOCC1 [Example 7, N-hydroxy-4-({4-[4-(4,4,4-trifluorobutoxy)phenyl]piperazin-1-yl}sulfonyl)tetrahydro-2H-pyran-4-carboxamide Hydrochloride] | 0.17 nM | 7.35 nM | – | –
CCCCOc1ccc(N2CCN(S(=O)(=O)C3(C(=O)NO)CCN(c4ccc(C)cn4)CC3)CC2)cc1 [Example 125] | – | – | 1.67 nM | 7.2 nM
CCCCc1ccc(N2CCN(S(=O)(=O)C3(C(=O)NO)CCN(CCOC)CC3)CC2)cc1 [Example 5, 4-{[4-(4-butylphenyl)piperazin-1-yl]sulfonyl}-N-hydroxy-1-(2-methoxyethyl)piperidine-4-carboxamide Dihydrochloride] | 0.522 nM | 0.108 nM | – | –
COCCN1CCC(C(=O)NO)(S(=O)(=O)N2CCN(c3ccc(OCC(F)(F)C(F)(F)F)cc3)CC2)CC1 [Example 144] | – | – | 0.306 nM | 2.31 nM
CCCCCc1ccc(N2CCN(S(=O)(=O)C3(C(=O)NO)CCN(CCOC)CC3)CC2)cc1F [Example 13, 4-{[4-(3-fluoro-4-pentylphenyl)piperazin-1-yl]sulfonyl}-N-hydroxy-1-(2-methoxyethyl)piperidine-4-carboxamide Dihydrochloride] | 0.61 nM | 0.712 nM | – | –
CCCCCc1ccc(N2CCN(S(=O)(=O)C3(C(=O)NO)CCN(CCOC)CC3)CC2)cc1 [Example 6, N-Hydroxy-1-(2-methoxyethyl)-4-{[4-(4-pentylphenyl)piperazin-1-yl]sulfonyl}piperidine-4-carboxamide Dihydrochloride] | 0.27 nM | 0.287 nM | – | –
CCCCc1ccc(N2CCN(S(=O)(=O)C3(C(=O)NO)CCN(c4ccc(C)cc4)CC3)CC2)cc1 [Example 146] | – | – | 9.38 nM | 2.29 nM
CCCCOc1ccc(N2CCN(S(=O)(=O)C3(C(=O)NO)CCN(c4cccnc4)CC3)CC2)cc1 [Example 154] | – | – | 0.561 nM | 2.15 nM
CCCCCc1ccc(N2CCN(S(=O)(=O)C3(C(=O)NO)CCN(c4ccc(C)cc4)CC3)CC2)cc1 [Example 147] | – | – | 7.35 nM | 13.7 nM
CCCCCc1cnc(N2CCN(S(=O)(=O)C3(C(=O)NO)CCOCC3)CC2)s1 [Example 56] | – | – | 1.74 nM | 3.49 nM
O=C(NO)C1(S(=O)(=O)N2CCC(c3ccc(CCC(F)(F)C(F)(F)F)cc3)CC2)CCOCC1 [Example 18, N-hydroxy-4-({4-[4-(3,3,4,4,4-pentafluorobutyl)phenyl]piperidin-1-yl}sulfonyl)tetrahydro-2H-pyran-4-carboxamide] | 0.444 nM | 0.398 nM | – | –
C=CCCOC(=O)N1CCC(C(=O)NO)(S(=O)(=O)N2CCN(c3ccc(OCCCC)cc3)CC2)CC1 [Example 101] | – | – | 0.92 nM | 3.8 nM
CCCCOc1ccc(N2CCN(S(=O)(=O)C3(C(=O)NO)CCN(C(=O)OCCF)CC3)CC2)cc1 [Example 113] | – | – | 0.25 nM | 1.01 nM
CCCCOc1ccc(N2CCN(S(=O)(=O)C3(C(=O)NO)CCN(c4ccc(OC)nc4)CC3)CC2)cc1 [Example 142] | – | – | 0.505 nM | 2.15 nM
CCCCOc1ccc(N2CCN(S(=O)(=O)C3(C(=O)NO)CCN(CCOC)CC3)CC2)cc1F [Example 11, 4-[[4-(4-butoxy-3-fluorophenyl)-1-piperazinyl]sulfonyl]-N-hydroxy-1-(2-methoxyethyl)-4-piperidinecarboxamide, Dihydrochloride] | 0.67 nM | 2.67 nM | – | –
CCCCCc1ccc(N2CCN(S(=O)(=O)C3(C(=O)NO)CCN(CC)CC3)CC2)cc1F [Example 22, 1-ethyl-4-{[4-(3-fluoro-4-pentylphenyl)piperazin-1-yl]sulfonyl}-N-hydroxypiperidine-4-carboxamine Hydrochloride] | 2.78 nM | 3.2 nM | – | –
CCCCCCCCC1CCN(S(=O)(=O)C2(C(=O)NO)CCOCC2)CC1 [Example 26, 4-(4-octyl-piperidine-1-sulfonyl)-tetrahydro-pyran-4-carboxylic Acid Hydroxyamide] | 0.51 nM | 0.33 nM | – | –
COCCN1CCC(C(=O)NO)(S(=O)(=O)N2CCN(c3ccc(OCC(F)(F)F)cc3)CC2)CC1 [Example 119] | – | – | 0.79 nM | 1.35 nM
Cc1ccc(N2CCN(S(=O)(=O)C3(C(=O)NO)CCOCC3)CC2)nc1 [Example 138] | – | – | 1.15 nM | 5.09 nM
CCCCOc1ccc(N2CCN(S(=O)(=O)C3(C(=O)NO)CCN4CCCC4C3)CC2)cc1F (stereo not drawn) [Example 126] | – | – | 7.06 nM | 19 nM
COc1ccc(-c2cnc(N3CCN(S(=O)(=O)C4(C(=O)NO)CCOCC4)CC3)nc2)cc1 [Example 8, N-hydroxy-4-({4-[5-(4-methoxyphenyl)pyrimidin-2-yl]piperazin-1-yl}sulfonyl)tetrahydro-2H-pyran-4-carboxamide Hydrochloride] | 0.11 nM | 1.65 nM | – | –
O=C(NO)C1(S(=O)(=O)N2CCN(c3ccc(OCC(F)(F)F)cc3)CC2)CCOCC1 [Example 2, N-hydroxy-4-({4-[4-(2,2,2-trifluoroethoxy)phenyl]piperazin-1-yl}sulfonyl)tetrahydro-2H-pyran-4-carboxamide Hydrochloride] | 0.77 nM | 1.28 nM | – | –
CCCCOc1ccc(N2CCN(S(=O)(=O)C3(C(=O)NO)CCN(C(=O)OCCOC)CC3)CC2)cc1 [Example 141] | – | – | 0.151 nM | 5.33 nM
CCCCOc1ccc(N2CCN(S(=O)(=O)C3(C(=O)NO)CCN(C(=O)c4cc5ccccc5s4)CC3)CC2)cc1 [Example 143] | – | – | 7.05 nM | 29 nM
COCCN1CCC(C(=O)NO)(S(=O)(=O)N2CCN(c3ccc(OCCCC(F)(F)F)cc3F)CC2)CC1 [Example 102] | – | – | 0.19 nM | 18.1 nM
CCOc1ccc(N2CCN(S(=O)(=O)C3(C(=O)NO)CCOCC3)CC2)cc1 [Example 3, 4-{[4-(4-ethoxyphenyl)piperazinyl]sulfonyl}perhydro-2H-pyran-4-carbohydroxamic Acid] | 1.46 nM | 0.93 nM | – | –
CCCCOc1ccc(N2CCN(S(=O)(=O)C3(C(=O)NO)CCN(c4nccc(C(F)(F)F)n4)CC3)CC2)cc1 [Example 130] | – | – | – | 23.2 nM
O=C(NO)C1(S(=O)(=O)N2CCN(c3ccc(OCCCC(F)(F)F)cc3F)CC2)CCOCC1 [Example 117] | – | – | – | 27.7 nM
